We go through six compounds from ChEMBL document CHEMBL1157531, “Sinulaflexiolides A-K, cembrane-type diterpenoids from the chinese soft coral Sinularia flexibilis” (J Nat Prod, 2008).

A short description of the assay: Cytotoxicity against human […] cells. Type of assay: functional, cell-based.
As usually defined, the IC50 is the concentration that gives 50% inhibition. A high value points to a need for much substance. In turn, `C=C(C(=O)OC)[C@@H]1CC[C@@](C)(O)[C@@H]2CC[C@@](C)(O2)[C@@H](OC(C)=O)CC[C@]2(C)O[C@@H]2C1` [SINULAFLEXIOLIDE E] came in with an IC50 of 8.5 µM.
In the case of `C=C(C(=O)OCC)[C@@H]1CC[C@@](C)(O)[C@@H]2CC[C@@](C)(O2)[C@@H](OC(C)=O)CC[C@]2(C)O[C@@H]2C1` [SINULAFLEXIOLIDE F] it was 0.12 µM; in that of `C=C1C(=O)O[C@@H]2C[C@H]1CC/C(C)=C/CC/C(C)=C/CC[C@]2(C)O`, above 10 µg/mL.
Next, `C=C1C(=O)O[C@]2(C)CC[C@@H]1C[C@H](O)/C(C)=C/C/C=C(\C)CC[C@@H]2OC(C)=O` [DENDRONPHOLIDE A]: above 10 µg/mL; `C=C1C(=O)O[C@]2(C)CC[C@@H]1C[C@H]1O[C@@]1(C)CC[C@H](OC(C)=O)[C@@]1(C)CC[C@@H]2O1`: above 10 µg/mL.
In the case of `C=C1C(=O)O[C@]2(C)CC[C@@H]1C[C@@H](O)[C@@](C)(O)CC/C=C(\C)CC[C@@H]2O` [CAPILLOLIDE] it was above 10 µg/mL.
